Assay results taken from patent publication US20030226158A1, “Cds1 knockout cells and mice, and their utilization” (priority 2000, published 2003).

Test system: p53 protein
Experiment: X-ray irradiation-induced p53 protein expression in ES cells, western blotting
Assay type: cell-based, mouse
Conditions: X-ray irradiated, western blotting with antibody against p53
Description: The analysis was done by western blotting.
ES cell lines in which one or both Cds1 (Chk2) alleles were inactivated (Cds1 (Chk2)+/− and Cds1 (Chk2)−/−) were treated with trypsin and counted. Then, a constant number of ES cells were plated in 6-well plates in which feeder cells had been planted in advance. MEF (mouse embryonic fibroblast) was used as feeder cells. The cells were treated with X ray and cultured in an CO2 incubator for 6 hours. Then, a cell extract was prepared, the proteins were separated by SDS-PAGE, and transferred to a PVDF membrane. p53 protein was quantified by conducting western blotting using an antibody against p53.

SMILES: Cn1c(=O)c2c(ncn2C)n(C)c1=O [caffeine]
- induction of p53 expression after irradiation (Cds1-/- ES cells): inhibited
- induction of p53 expression after irradiation (wild type ES cells): inhibited
